The numbers were not newly measured in patent US20110086017A1, “Medical Food composition and methods for management of inflammatory processes in mammals” (priority 2009, published 2011), which cites them from elsewhere.

In this data set the test system is plasma exudate at the site of inflammation. The conditions noted are these: animal study; by decreasing bradykinin and pre-kallikrein levels.

Turning to Bromelain, the “plasma exudate at the site of inflammation” value is on record as “dose-dependently reduced plasma exudate”.
